≈ marks a conversion by molar mass, not a printed value. Where two headings read alike, the source gives them in different places.
Tests used:
[1] = Aqueous solubility of modafinil, alone and in HPβCD solutions; format: physicochemical; conditions: thermodynamic from solid
Description: The following HPLC method may be used to measure the modafinil compound content in the compositions. Filter a solution saturated with a modafinil compound through a 1.2 μm syringe filter. Dilute 10 μL of the clear solution to 1 mL with 990 μL of dimethylsulfoxide (Fischer Certified ACS grade). Take 10 μL of the diluted solution for the HPLC analysis, with the following representative column conditions: • Flow rate: 1.2 mL/min. • Column: ODS, 4.6×20 mm, Column Temp: 30° C. • Mobil phase: 80%(65% Acetonitrile/35%1M phosphate buffer) 20% water • Analysis time: 5 minutes • Wavelength: 222 nanometers
Concentration can be calculated by comparison to area from a modafinil compound standard used at 0.4 mg/mL with appropriate dilution.

mice = conditions: single administration; cited from earlier work
monkeys = conditions: single administration; cited from earlier work

**Q.** With NC(=O)C[S+]([O-])C(c1ccccc1)c1ccccc1 (stereo not drawn) [modafinil, 2-(benzhydryl-sulfinyl)acetamide] as the compound, how does the solubility ([1]; aqueous with cosolvent or surfactant or cyclodextrin, 2% HPβCD solution, from 1:1 complex, read-out: amount solubilized) read?
**A.** Its solubility is about 4.4 mg/mL (≈ 16.1 mM).

**Q.** And the solubility ([1]; aqueous with cosolvent or surfactant or cyclodextrin, 20% HPβCD solution, from 1:1 complex, read-out: amount solubilized)?
**A.** The solubility was about 39.5 mg/mL (≈ 144 mM).

**Q.** What about the solubility ([1]; aqueous with cosolvent or surfactant or cyclodextrin, 40% HPβCD solution, from 1:1 complex, read-out: amount solubilized) of the same compound?
**A.** The solubility was about 78.4 mg/mL (≈ 287 mM).

**Q.** And the solubility ([1]; water without cyclodextrin, water, read-out: aqueous solubility)?
**A.** Its solubility is 0.44 mg/mL (≈ 1.61 mM).

**Q.** What about the locomotor activity (mice) of the same compound?
**A.** The locomotor activity was “increased locomotor activity”.

**Q.** What about the nocturnal activity (monkeys) of the same compound?
**A.** Its nocturnal activity is “increased nocturnal activity”.
